One assay deals with T1, dopamine D2S receptor (Homo sapiens, UniProt P14416).
T1 construct: host or cells: HEK-293 cells (membrane homogenates)
The assay can be described thus: Dopamine D2S receptor radioligand binding (HEK-293). To be noted: 10 μM. As for the experimental part: (§1) α1 Adrenergic and Dopamine D2 Receptors. Methods: Binding and functional assays for α1 adrenergic and dopamine D2 receptors were performed by Eurofins Cerep according to their methods.
Dopamine D2 Receptor. Binding at 10 μM. The binding assay evaluated the affinity of test articles for the dopamine D2 receptor in transfected human embryonic kidney (HEK)-293 cells. For determining the binding in the D2S receptor assay, test article was incubated with 0.3 nM [^3H] methylspiperone or 1 nM [^3H] 7-hydroxy-2-N,N-dipropylaminotetralin (7-OH-DPAT). [3H] Methylspiperone at 0.3 nM also was used as control ligand in the D2L binding assay. Cell membrane homogenates were incubated in duplicate at room temperature for 60 minutes with ligand in the absence or presence of test articles at 10 μM. After the incubation period, samples were filtered through glass fiber filters, the filters dried and then counted for radioactivity using a scintillation counter. Results are expressed as mean percent inhibition of control radioligand binding.
Binding IC50. To determine the binding IC50 in the D2 receptor assays, HEK-293 were tested as described above but with varying concentrations of test article. Compound A was tested at 0.01-30 μM in the D2S radioligand binding assay. […] Compound 1 was assayed at 0.03-100 μM in both the D2S and D2L assays, while Compound 2 was tested at 0.03-100 μM in the D2S assay and 0.01-100 μM in the D2L assays. The IC50 was defined as the concentration causing a half-maximum inhibition of control specific binding.

Assay [1] has as its system non-selective α1 adrenergic receptor. Kind of assay: α1 adrenergic receptor radioligand binding ([3H]prazosin). The settings on record: 10 μM; rat cerebral cortex; 0.25 nM [3H]prazosin. As for the experimental part: as §1
α1 Adrenergic Receptor. Binding at 10 μM. The binding assay evaluated the affinity of test article for the non-selective α1 adrenergic receptor in rat cerebral cortex. Membrane homogenates of cerebral cortex were incubated in duplicate for 60 minutes at room temperature with 0.25 nM [^3H]prazosin in the absence or presence of test articles at 10 μM. After the incubation period, samples were filtered through glass fiber filters, the filters dried and then counted for radioactivity using a scintillation counter. Results are expressed as mean percent inhibition of control radioligand binding.
Binding IC50. […] Compound A was tested at 0.01-30 μM. […] Compound 1 and Compound 2, the S-enantiomer of Compound 1, were assayed at 0.03-100 μM. Radioactivity was measured as described above. The IC50 was defined as the concentration causing a half-maximum inhibition of control specific binding.

In assay [2] the test system is MM cell lines H929-1051, KMS11, KMS-12PE, L363, OPM-P10, RPMI8226. Kind of assay: Combination with small molecule inhibitors, synergy (Cell Titer-Glo, 3 days). The format is cell-based, human. The settings on record: Highest Single Agent method, 6 MM cell lines. As for the experimental part:
The effect of combining treatment with Compound 2 and small molecule inhibitors with various mechanisms was evaluated in a panel of MM cell lines. Thirteen small molecule inhibitors were selected for combination studies with Compound 2 based on their preclinical and/or activity against MM. The cell lines H929-1051, KMS11, KMS-12PE, L363, OPM-P10, and RPMI8226 were selected for this study to represent the different genetic clustering groups across MM cell lines. […] Combination agents were dosed in a 6 point dose-response curve (DRC) at a 1:3 dilution, Compound 2 was dosed in a 10 point DRC, also at a 1:3 dilution. The combination experiments were run twice, each time with replicate data on separate plates. Compounds were pre-spotted into the appropriate wells of 384-well plates using an acoustic dispenser. All MM cell lines were cultured in an incubator at 37° C. with 5% CO2 using the indicated cell culture media containing 1× Penicillin-Streptomycin. Cells were added to the compound containing 384-well plates using a Multidrop Combi Reagent Dispenser and allowed to incubate for 3 days at 37° C. with 5% CO2. After 3 days, cells were assessed for their level of ATP content via Cell Titer-Glo measured on a luminescence detector (PerkinElmer Envision).
The Highest Single Agent (HAS) method was used to detect synergy in the dose response curve data. Combinations were analyzed from a response surface perspective. A statistical framework (Van Der Borght, K., et al., BIGL: Biochemically Intuitive Generalized Loewe null model for prediction of the expected combined effect compatible with partial agonism and antagonism; Scientific Reports, 7 (1), 17935-1-17935-9 (2017)) was incorporated into the analysis on top of the HAS null model with two statistical tests: 1) Complete response surface differs from null model, 2) Single well differs from null model.
(Cellular ATP, detected with luciferase, serves as a proxy for viable cell number.)

Another assay deals with K562 cells. The assay can be described thus: Coculture of compound-treated IL-2-activated PBMCs with K562 cells. The format is cell-based, human. The settings on record: Homo sapiens, K562; IL-2-activated PBMCs treated 72 h; 4 h coculture; read-out: IC50 of compound-treated PBMCs for direct K562 cell killing. How it is done: Coculture Experiments with Peripheral Blood Mononuclear Cells and K562 Cells. Methods: Human Peripheral Blood Mononuclear Cell (PBMC) Preparation: PBMCs isolated from healthy donors were cultured in RPMI 1640 medium with 10% FBS at a density of 1×10^6 cells/mL.
Cell Culture: K562 cells were kept in log phase, and cell density and viability were monitored by trypan blue exclusion using the Vi-CELL® XR cell viability analyzer (Beckman Coulter, Brea, CA).
Assay Procedures: Freshly isolated human PBMCs were cultured with recombinant IL-2 at concentration of 20 units/mL for 72 h. Peripheral blood mononuclear cells were then spun down and re-suspended in fresh RPMI complete medium to 2×10^6 cells/mL. Cells were then treated with DMSO or compounds at the indicated concentrations and incubated for an additional 72 h. The PBMCs were then washed twice in fresh RPMI complete medium prior to coculture. K562 cells were re-suspended to a cell density of 1×10^6/mL and stained with 1 μM CellTrace CFSE according to manufacturer's instructions. The labeled K562 cells were then seeded into a 96-well round bottom plate at 1×10^5 cells/well. Peripheral blood mononuclear cells were then transferred into the same 96-well plate at a 1:15 ratio, in triplicate and incubated at 37° C. for 4 h. Specific target cell lysis by PBMC cells was measured using Annexin V-fluorescein isothiocyanate (FITC) and propidium iodide (PI) according to manufacturer's instructions and samples were run on the FACS Array scan. Non-labeled K562 cells, CellTrace CFSE-labeled K562 cells, and Annexin V-FITC- and PI labeled untreated K562 cells were included in each assay as controls.

The next assay deals with H929-1051. The assay can be described thus: PBMC and MM cell treatment assay (single culture vs co-culture). To be noted: Homo sapiens, PBMC, H929-1051, read-out: Immune-mediated Cell Killing IC50. Format: cell-based, human. As for the experimental part: (§2) PBMC and MM Cell Treatment Assay Procedure. Ninety-six-well dishes were pre-coated with anti-CD3 antibody (OKT3, 3 μg/mL) and incubated at 4° C. overnight before the start of the experiment. Frozen PBMC donor cells were thawed at 37° C. for 2 minutes in RPMI medium with 10% FBS and cell counts and viability were measured on the Vi-CELL analyzer. Peripheral blood mononuclear cells were washed and diluted to 1×10^6 cells/mL and dispensed into the compound-treated plates in a total volume of 200 μL. Cells were incubated with compounds for 2 h before being transferred onto anti-CD3-coated plates and incubated for an additional 72 h. At the same time, MM cell lines (NCI-H929, H929-1051, OPM2, OPM2-P10) were diluted to a final concentration of 0.1×10^6 cells/mL and labeled with CellTrace CFSE according to manufacturer's instructions. Multiple myeloma cell lines were then dispensed into compound-treated plates at a total volume of 200 μL and incubated for 72 h. After 72 h, the PBMCs and MM cells were counted and transferred into a U-bottom 96-well plate at a final T:E ratio of 1:5. After 24 h coculture, specific target cell lysis by PBMC cells was measured using Annexin V-AF647 and 7-AAD according to manufacturer's instructions and samples were run on the Attune NxT Cytometer.
(§3) Because preincubation of immune cells with Compound 2 enhanced the targeting and lysing of MM cells, the effect of preincubation of MM cells with Compound 2 on their susceptibility to immune-mediated killing was also explored (FIG. 16A, FIG. 16B, FIG. 16C, and FIG. 16D, Table 12). Four MM cell lines and anti-CD3 antibody-activated PBMCs were separately preincubated with Compound 2, lenalidomide, or pomalidomide for 72 h. When anti-CD3 antibody-activated PBMCs and MM lines were both pretreated with Compound 2, lenalidomide, or pomalidomide, followed by co-culture, the effects on the PBMC-induced MM cell lysis were enhanced both in the potency and magnitude of the killing response. […] For the pomalidomide-resistant OPM2-P10 cell line, Compound 2 treatment of the MM cells enhanced the immune-mediated killing by ˜3000-fold (Table 12).

The subject of a further assay is NCI-H929. Described as above. The format is cell-based, human. To be noted: Homo sapiens, NCI-H929, NCI-H929, read-out: Immune-mediated Cell Killing IC50. How it is done:
as §2, §3

In another assay the test system is OPM2-P10. The assay is described as above. Format: cell-based, human. To be noted: Homo sapiens, PBMC, read-out: Immune-mediated Cell Killing IC50. How it is done: as §2, §3
The next assay deals with RPMI-8226. The assay is described as above. Format: cell-based. The settings on record: Homo sapiens, RPMI-8226, RPMI-8226, read-out: Immune-mediated Cell Killing IC50.
A further assay deals with OPM2. Described as above. The format is cell-based. The settings on record: Homo sapiens, OPM-2, OPM2, read-out: Immune-mediated Cell Killing IC50. How it is done:
as §2, §3

pIC50: −log10 of the molar value. Like-named read-outs stand apart in the source and are kept apart here.

T1 sequence (P14416 1-414 isoform P14416-2): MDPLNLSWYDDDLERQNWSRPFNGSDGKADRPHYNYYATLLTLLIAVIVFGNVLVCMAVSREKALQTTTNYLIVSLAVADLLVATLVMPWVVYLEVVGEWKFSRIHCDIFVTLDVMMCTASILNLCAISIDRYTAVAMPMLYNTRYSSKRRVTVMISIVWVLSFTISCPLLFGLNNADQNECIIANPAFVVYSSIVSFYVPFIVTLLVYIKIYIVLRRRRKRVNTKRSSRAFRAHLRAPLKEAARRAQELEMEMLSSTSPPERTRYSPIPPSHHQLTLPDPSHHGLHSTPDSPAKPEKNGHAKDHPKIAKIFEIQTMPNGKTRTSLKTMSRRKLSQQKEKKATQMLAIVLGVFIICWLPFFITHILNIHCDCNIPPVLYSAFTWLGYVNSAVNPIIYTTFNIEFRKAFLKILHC

On to `O=C1CCC(N2Cc3c(OCc4ccc(CN5CCN(c6ccccc6)CC5)cc4)cccc3C2=O)C(=O)N1` (racemic) [Ex. 5.229], for which, at dopamine D2S receptor, the “Dopamine D2S % Inhibition (10 μM)” value is listed as 98.7%.

On to `O=C1CCC(N2Cc3c(OCc4ccc(CN5CCN(c6ccc(F)cc6)CC5)cc4)cccc3C2=O)C(=O)N1` (racemic) [Ex. 5.273], for which the “Dopamine D2S % Inhibition (10 μM)” value at dopamine D2S receptor is 94.7%. Moreover, the “Adrenergic α1 (non-selective) % Inhibition (10 μM)” value in assay [1] was 100.3%.

Take `O=C1CCC(N2C(=O)c3cccc(OCc4ccc(CN5CCN(c6ccc(F)cc6)CC5)cc4)c3C2=O)C(=O)N1` (racemic) [Ex. 5.289]: the “Dopamine D2S % Inhibition (10 μM)” value at dopamine D2S receptor is 92.4%.

For `O=C(CCCCCCNC(=O)c1cnc(N(c2ccccc2)c2ccccc2Cl)nc1)NO` [ACY241], the “synergistic activity in combination with Compound 2 (cell lines)” value (“synergistic activity in combination” below) in assay [2] is given as “synergistic in L363/OPM2-P10”.

Regarding `CO[C@H]1/C=C/C[C@H](C)[C@@H](C)S(=O)(=O)NC(=O)c2ccc3c(c2)N(C[C@@H]2CC[C@H]21)C[C@@]1(CCCc2cc(Cl)ccc21)CO3` [AMG176], the “synergistic activity in combination” value in assay [2] is “synergistic activity in three cell lines (KMS11, KMS12-PE, L363)”.

As for `Cn1cc(-c2cc(S(C)(=O)=O)ccc2OCC2CC2)c2ccccc2c1=O` [Compound D, 4-[2-(cyclopropylmethoxy)-5-(methanesulfonyl)phenyl]-2-methylisoquinolin-1(2H)-one], in [2], the “synergistic activity in combination” value was “synergistic activity in the MM cells”.

For the compound `COc1ccc(-c2c(-c3ccc(C#N)c(F)c3)nc(N3CCC(N)CC3)n(C)c2=O)cc1F` [Compound E, 4-[2-(4-amino-piperidin-1-yl)-5-(3-fluoro-4-methoxy-phenyl)-1-methyl-6-oxo-1,6-dihydropyrimidin-4-yl]-2-fluoro-benzonitrile], the “synergistic activity in combination” value in [2] was “synergistic in L363 and KMS12-PE cells”.

`Nc1cccc2c1CN(C1CCC(=O)NC1=O)C2=O` (stereo not drawn) [Lenalidomide, lenalidomide]: the pIC50 (as a rule, −log10 of the IC50, conventionally taken in molar units) is 7.70 with K562 cells; 6.06 with H929-1051 (Co-culture with PBMCs); under 5.00 in the assay on H929-1051 (Single culture); 6.50 in the assay with NCI-H929 (Co-culture with PBMCs); under 5.00 in the assay on NCI-H929 (Single culture); 5.09 in the assay on OPM2-P10 (Co-culture with PBMCs). The pIC50 with OPM2-P10 (Single culture) was under 5.00; in the assay with RPMI-8226 (Co-culture with PBMCs) it was 6.90; in the assay on RPMI-8226 (Single culture), under 5.00; in the assay with OPM2 (Co-culture with PBMCs), 5.76; in the assay on OPM2 (Single culture), under 5.00.

As to `Cc1sc2c(c1C)C(c1ccc(Cl)cc1)=N[C@@H](CC(=O)Nc1ccc(O)cc1)c1nnc(C)n1-2` [birabresib], the “synergistic activity in combination” value in assay [2] is reported as “synergistic activity in the MM cells”.

In the case of MIK665, the “synergistic activity in combination” value in [2] is “did not show significant synergy in the 6 MM cell lines tested”.
